Values belong to the compound of their own block, whether it stands above or below them. Activity calls are given as the source filed them.
Legend:
[1] = biological target: Endoplasmic reticulum aminopeptidase 1 (Homo sapiens, UniProt Q9NZ08); assay: ERAP1 aminopeptidase inhibitors, dose response, biochemical, cherry-pick, set 2, plate reader (AID 743314)
[2] = HepG2 cell cytotoxicity, dose response, cytotoxicity control, ATP luminescence, cherry-pick, activator set 2 (AID 1053143); type: functional, cell-based
[3] = cytotoxicity in HepG2 cells, dose response, cytotoxicity control, cell-based, cherry-picked samples (AID 1053183); type: functional
[4] = cytotoxicity in HEK293 cells, dose response, cytotoxicity control, cell-based, cherry-picked samples (AID 1053185); type: functional
HEK293 = assay: HEK293T cell cytotoxicity, dose response, cytotoxicity control, ATP luminescence, cherry-pick samples (AID 687005); type: functional, cell-based; conditions: Homo sapiens;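 also: cells exposed to compound for 48 hours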
[5] = HEK293 Cytotoxicity Assay Measured in Cell-Based System Using Plate Reader - 7071-01_Inhibitor_Dose_CherryPick_Activity_Set2.; type: functional
[6] = biological target: Broad substrate specificity ATP-binding cassette transporter ABCG2 (Homo sapiens, UniProt Q9UNQ0); assay: ABCG2 efflux pump inhibitors, dose response, Ig-MXP3 cells, flow cytometry (AID 1690); type: functional
Broad substrate specificity ATP-binding cassette transporter ABCG2, sequence (Q9UNQ0 whole entry): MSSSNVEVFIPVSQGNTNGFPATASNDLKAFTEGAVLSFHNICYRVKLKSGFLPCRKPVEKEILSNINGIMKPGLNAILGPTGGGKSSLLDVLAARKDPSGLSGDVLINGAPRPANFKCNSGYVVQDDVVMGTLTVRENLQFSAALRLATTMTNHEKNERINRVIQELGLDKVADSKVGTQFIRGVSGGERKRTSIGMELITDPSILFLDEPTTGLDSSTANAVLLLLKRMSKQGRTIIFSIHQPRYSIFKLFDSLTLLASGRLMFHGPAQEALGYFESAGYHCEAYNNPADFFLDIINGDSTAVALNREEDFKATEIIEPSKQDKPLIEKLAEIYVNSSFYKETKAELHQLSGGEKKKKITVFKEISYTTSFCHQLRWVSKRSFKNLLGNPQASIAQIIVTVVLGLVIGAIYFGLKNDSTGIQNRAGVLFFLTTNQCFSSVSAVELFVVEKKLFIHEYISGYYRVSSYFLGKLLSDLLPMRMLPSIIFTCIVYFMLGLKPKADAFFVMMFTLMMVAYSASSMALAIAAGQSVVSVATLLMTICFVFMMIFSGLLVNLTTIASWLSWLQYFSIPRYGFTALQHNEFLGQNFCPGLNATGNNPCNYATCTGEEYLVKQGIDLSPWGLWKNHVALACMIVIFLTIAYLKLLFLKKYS

[7] = biological target: 1-phosphatidylinositol 4,5-bisphosphate phosphodiesterase beta-3 (Homo sapiens, UniProt Q01970); assay: Fluorescence-based biochemical high throughput dose response assay to identify inhibitors of phospholipase C isozymes (PLC-B3).
1-phosphatidylinositol 4,5-bisphosphate phosphodiesterase beta-3, sequence (Q01970 whole entry): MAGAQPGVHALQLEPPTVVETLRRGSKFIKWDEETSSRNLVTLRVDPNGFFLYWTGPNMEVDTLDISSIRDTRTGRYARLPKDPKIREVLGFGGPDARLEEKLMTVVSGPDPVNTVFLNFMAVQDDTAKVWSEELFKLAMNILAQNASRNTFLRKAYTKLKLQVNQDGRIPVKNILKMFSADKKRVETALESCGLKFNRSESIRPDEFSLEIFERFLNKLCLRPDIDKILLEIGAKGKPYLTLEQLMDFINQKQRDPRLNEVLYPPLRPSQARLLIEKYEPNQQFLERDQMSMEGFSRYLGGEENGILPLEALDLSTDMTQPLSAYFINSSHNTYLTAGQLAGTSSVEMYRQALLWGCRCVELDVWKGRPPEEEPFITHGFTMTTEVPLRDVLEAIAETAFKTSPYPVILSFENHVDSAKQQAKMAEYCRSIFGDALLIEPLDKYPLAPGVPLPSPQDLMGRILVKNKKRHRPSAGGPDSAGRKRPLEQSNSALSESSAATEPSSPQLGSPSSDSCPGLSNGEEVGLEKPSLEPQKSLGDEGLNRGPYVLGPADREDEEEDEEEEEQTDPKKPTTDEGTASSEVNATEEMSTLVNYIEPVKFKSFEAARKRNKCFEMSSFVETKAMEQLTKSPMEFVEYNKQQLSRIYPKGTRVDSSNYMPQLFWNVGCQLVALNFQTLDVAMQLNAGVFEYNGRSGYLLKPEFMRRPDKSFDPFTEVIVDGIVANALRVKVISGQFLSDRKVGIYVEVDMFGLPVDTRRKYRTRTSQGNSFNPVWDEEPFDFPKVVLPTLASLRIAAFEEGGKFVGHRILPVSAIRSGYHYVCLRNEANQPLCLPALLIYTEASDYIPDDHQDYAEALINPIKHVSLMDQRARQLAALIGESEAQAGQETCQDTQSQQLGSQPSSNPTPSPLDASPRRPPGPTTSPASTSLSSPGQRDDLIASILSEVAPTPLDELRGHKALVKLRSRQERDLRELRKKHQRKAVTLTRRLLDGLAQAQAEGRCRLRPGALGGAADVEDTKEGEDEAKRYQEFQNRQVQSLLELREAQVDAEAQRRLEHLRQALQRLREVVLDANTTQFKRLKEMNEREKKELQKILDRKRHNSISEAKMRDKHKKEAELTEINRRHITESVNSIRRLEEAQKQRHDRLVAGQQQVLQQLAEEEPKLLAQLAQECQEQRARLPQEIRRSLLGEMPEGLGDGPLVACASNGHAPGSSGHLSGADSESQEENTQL

[8] = biological target: 1-phosphatidylinositol 4,5-bisphosphate phosphodiesterase gamma-1 (Homo sapiens, UniProt P19174); assay: Counterscreen for inhibitors of phospholipase C isozymes (PLC-B3): Fluorescence-based biochemical high throughput dose response assay to identify inhibitors of phospholipase C isozymes (PLC-gamma1).
[9] = biological target: COUP transcription factor 2 (Homo sapiens, UniProt P24468); assay: Luminescence-based cell-based high throughput dose response assay to identify inhibitors of COUP-TFII (NR2F2).; type: functional;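 also: HEK293 cells transiently cotransfected with COUP-TFII expression vector and reporter; luciferase reporter luminescence driven by COUP-TFII from the pX2-168 reporter plasmid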
COUP transcription factor 2, sequence (P24468 whole entry): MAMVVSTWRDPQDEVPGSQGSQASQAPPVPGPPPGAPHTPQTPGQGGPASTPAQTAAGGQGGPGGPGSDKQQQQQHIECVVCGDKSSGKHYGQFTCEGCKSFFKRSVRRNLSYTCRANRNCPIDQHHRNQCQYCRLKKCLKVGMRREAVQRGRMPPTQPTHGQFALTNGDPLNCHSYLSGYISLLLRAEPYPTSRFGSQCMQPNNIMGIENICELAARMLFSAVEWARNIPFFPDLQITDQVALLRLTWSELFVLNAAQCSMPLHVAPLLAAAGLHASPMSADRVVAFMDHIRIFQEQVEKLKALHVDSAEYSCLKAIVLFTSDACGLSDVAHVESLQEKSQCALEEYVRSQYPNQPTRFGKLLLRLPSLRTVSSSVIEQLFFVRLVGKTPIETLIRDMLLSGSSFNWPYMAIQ

[10] = biological target: Potassium channel subfamily K member 3 (Homo sapiens, UniProt O14649); assay: TASK1 (KCNK3) potassium channel inhibitors, SAR follow-up, CHO cells, FluxOR thallium flux (AID 652212); type: functional
Potassium channel subfamily K member 3, sequence (O14649 whole entry, the tested form may be a part): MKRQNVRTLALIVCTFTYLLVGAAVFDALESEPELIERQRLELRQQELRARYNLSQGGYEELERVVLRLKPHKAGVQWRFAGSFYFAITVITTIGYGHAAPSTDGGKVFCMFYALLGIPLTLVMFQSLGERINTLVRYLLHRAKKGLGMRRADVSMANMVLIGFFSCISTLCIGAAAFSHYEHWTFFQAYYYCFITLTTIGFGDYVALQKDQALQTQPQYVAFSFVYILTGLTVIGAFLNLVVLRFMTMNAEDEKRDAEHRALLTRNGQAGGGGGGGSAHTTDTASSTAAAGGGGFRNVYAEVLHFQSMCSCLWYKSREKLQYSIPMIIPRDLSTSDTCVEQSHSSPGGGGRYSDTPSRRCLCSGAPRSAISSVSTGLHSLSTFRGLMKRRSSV

[11] = inhibitors of HIV Env-driven cell fusion, dose response, cherry-pick (AID 652057); type: functional, cell-based
[12] = off-target signal loss in HeLa-CEM21 co-culture – HeLa F-luc CTL cells, cherry-picked, counter-screen for HIV-1 Env fusion inhibitor project, dose response (AID 652040); type: functional, cell-based;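 also: potency for signal decrease marking cytotoxic or nonspecific inhibition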
[13] = ADAM10 inhibitors, peptide cleavage, dose response, biochemical, QFRET (AID 743254);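 also: ADAM10 enzyme with the DM2 quenched FRET peptide as substrate; EDANS fluorescence gain as the protease cuts the substrate; inhibitor potency against ADAM10 proteolytic activity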
[14] = CEM21 lymphoblast cell cytotoxicity, dose response, cytotoxicity control for viral fusion inhibitor project, CellTiter-Glo luminescence, cherry-picked (AID 652042); type: functional, cell-based;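 also: potency for signal decrease meaning cytotoxicity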
[15] = biological target: Disintegrin and metalloproteinase domain-containing protein 17 (Homo sapiens, UniProt P78536); assay: ADAM17 protease inhibitors, dose response, counter-screen for ADAM10 exosite inhibitor project, biochemical, quenched FRET substrate (AID 743253)
Disintegrin and metalloproteinase domain-containing protein 17, sequence (P78536 whole entry, the tested form may be a part): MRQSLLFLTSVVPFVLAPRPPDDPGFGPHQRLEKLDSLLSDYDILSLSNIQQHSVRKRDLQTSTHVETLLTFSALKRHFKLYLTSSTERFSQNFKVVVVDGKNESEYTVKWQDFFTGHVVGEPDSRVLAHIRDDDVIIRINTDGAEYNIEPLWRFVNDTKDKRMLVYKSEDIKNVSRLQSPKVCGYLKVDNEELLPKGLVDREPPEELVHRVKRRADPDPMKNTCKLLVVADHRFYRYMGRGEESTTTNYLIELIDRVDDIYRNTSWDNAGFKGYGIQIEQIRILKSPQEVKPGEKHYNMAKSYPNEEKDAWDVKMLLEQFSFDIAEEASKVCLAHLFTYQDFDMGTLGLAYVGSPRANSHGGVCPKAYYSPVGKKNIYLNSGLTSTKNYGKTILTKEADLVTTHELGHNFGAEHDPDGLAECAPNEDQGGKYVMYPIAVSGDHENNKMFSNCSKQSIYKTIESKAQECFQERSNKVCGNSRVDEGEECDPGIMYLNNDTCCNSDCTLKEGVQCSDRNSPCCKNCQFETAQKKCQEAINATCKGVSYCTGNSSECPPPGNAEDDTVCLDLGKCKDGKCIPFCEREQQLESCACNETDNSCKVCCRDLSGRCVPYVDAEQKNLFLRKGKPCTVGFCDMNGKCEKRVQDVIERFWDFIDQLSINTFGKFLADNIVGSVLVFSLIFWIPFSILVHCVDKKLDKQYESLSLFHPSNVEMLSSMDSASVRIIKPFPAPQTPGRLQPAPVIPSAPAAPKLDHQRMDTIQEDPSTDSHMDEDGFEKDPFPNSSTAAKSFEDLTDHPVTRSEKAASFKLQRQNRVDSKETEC

[16] = T. cruzi intracellular amastigote growth inhibition, dose response, imaging, CA-I/72 strain, bovine embryo skeletal muscle, dry powder (AID 651885); type: functional, cell-based
[17] = intracellular Trypanosoma cruzi inhibitors in host cells – cell-based, plate reader, cherry-pick samples, set 3, dose response (AID 651818); type: functional;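 also: compounds incubated with infected cells for about four days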
[18] = T. cruzi growth inhibition in host cells, dose response, cell-based, plate reader, dry powder, set 2 (AID 652275); type: functional
Protein Wnt-3a = Protein Wnt-3a (Mus musculus, UniProt P27467); assay: SAR analysis of small molecule antagonists of Gli-SUFU in a Wnt3a luminescent reporter assay.; type: functional
Protein Wnt-3a, sequence (P27467 whole entry): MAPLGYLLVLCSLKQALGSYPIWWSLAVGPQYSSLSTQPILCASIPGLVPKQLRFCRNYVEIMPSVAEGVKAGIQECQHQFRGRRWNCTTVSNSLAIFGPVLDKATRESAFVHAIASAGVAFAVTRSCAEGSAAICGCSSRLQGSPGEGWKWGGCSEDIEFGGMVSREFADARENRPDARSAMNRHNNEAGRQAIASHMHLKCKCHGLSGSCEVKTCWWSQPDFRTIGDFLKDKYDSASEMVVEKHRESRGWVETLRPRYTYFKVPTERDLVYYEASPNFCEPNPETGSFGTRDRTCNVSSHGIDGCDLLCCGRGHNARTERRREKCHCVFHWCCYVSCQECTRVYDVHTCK

Endoplasmic reticulum aminopeptidase 1, sequence (Q9NZ08 whole entry): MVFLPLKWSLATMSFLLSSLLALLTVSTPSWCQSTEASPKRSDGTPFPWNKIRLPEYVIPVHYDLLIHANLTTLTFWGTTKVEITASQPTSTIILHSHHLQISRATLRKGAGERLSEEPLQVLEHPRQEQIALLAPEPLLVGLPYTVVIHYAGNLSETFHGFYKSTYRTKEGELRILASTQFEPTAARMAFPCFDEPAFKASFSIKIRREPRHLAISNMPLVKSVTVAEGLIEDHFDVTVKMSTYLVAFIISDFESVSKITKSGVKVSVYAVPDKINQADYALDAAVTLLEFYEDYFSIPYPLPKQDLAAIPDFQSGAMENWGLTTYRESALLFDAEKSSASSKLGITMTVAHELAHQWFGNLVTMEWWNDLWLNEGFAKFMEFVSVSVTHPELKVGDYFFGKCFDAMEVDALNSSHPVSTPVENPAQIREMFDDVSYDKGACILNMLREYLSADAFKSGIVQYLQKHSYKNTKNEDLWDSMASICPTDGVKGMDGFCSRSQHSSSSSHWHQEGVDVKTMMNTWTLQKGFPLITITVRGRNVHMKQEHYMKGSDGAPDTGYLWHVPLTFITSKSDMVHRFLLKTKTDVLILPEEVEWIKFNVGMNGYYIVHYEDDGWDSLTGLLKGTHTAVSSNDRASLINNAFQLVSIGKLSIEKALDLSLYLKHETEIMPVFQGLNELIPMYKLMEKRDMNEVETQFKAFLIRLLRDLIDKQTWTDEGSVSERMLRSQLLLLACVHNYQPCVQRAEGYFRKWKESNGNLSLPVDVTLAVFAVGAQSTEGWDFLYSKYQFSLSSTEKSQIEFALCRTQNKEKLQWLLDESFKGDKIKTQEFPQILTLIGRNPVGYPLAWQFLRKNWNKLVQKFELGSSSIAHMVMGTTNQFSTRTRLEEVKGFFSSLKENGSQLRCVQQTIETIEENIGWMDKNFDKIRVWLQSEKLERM

SMILES: Cc1cc(=O)oc2c(CN3CCCCC3)c(O)ccc12
AC50 [1]: 5.18 µM (active)

SMILES: c1csc(-c2ccc(N3CCOCC3)nn2)c1
AC50 [2]: 26 µM (active)

SMILES: N#Cc1cccc(-c2ccc([C@H]3[C@@H]4CN(C(=O)Nc5ccc(C(F)(F)F)cc5)C[C@H]3N4)cc2)c1
AC50 [3]: 36.1 µM (active) | AC50 [4]: > 52 µM (inactive)

SMILES: COc1ccccc1C#Cc1ccc2c(c1)O[C@@H](CN(C)C(C)=O)[C@@H](C)CN([C@H](C)CO)S2(=O)=O
AC50 (HEK293): 9.59 µM (active) | AC50 [5]: 9.59 µM (active)

EC50 [6]: 4.6 µM (active)
SMILES: COC(=O)c1ccc(C(C(=O)NC2CCCCC2)N(Cc2ccccc2)C(=O)Cc2cccs2)cc1 (stereo not given)

IC50 [7]: > 123 µM (inactive) | IC50 [8]: > 123 µM (inactive)
SMILES: CCOC(=O)/C(C#N)=C1/C=CN(C)C=N1

IC50 [9]: 6.35 µM (active)
SMILES: c1ccc2cc3[nH]c(CNc4nc(N5CCOCC5)nc5c4ncn5-c4ccsc4)nc3cc2c1

IC50 [10]: 5.59 µM (active)
SMILES: Cc1cccc(C(=O)Nc2ccccc2C(=O)Nc2ccccc2)c1

SMILES: COc1cc2c(cc1OC)C(=O)N1[C@H]3c4cc(Cl)ccc4OC[C@@H]3[C@H](c3ccccc3)[C@]1(C)C(=O)N2
AC50 [11]: 8.86 µM (active) | AC50 [12]: 21 µM (active) | IC50 [13]: > 69.5 µM (inactive) | AC50 [14]: 53.4 µM (active) | IC50 [15]: > 69.5 µM (inactive)

SMILES: COc1ccc(CN(C)C[C@@H]2Oc3c(NC(=O)c4ccncc4)cccc3C(=O)N([C@@H](C)CO)C[C@H]2C)cc1
IC50 [16]: 0.18 µM (active) | AC50 [17]: 0.388 µM (active) | AC50 [18]: 0.0382 µM (active)

IC50 (Protein Wnt-3a): > 21.8 µM (inactive)
SMILES: O=C(Nc1cc(N2CCCCC2)ncn1)c1ccc(Br)o1

— ChEMBL document CHEMBL1201862, “PubChem BioAssay data set” (2004)
